Results published in ChEMBL document CHEMBL4808247 (Bioorg Med Chem, 2021).
Converted amounts (≈) assume the structure as drawn.

Legend:
Assay type in all cases: functional
Klebsiella pneumoniae [1] = test: Antibacterial activity against Klebsiella pneumoniae PLE producing class D beta-lactamase, OXA-48 assessed as reduction in microbial growth incubated for 16 to 20 hrs in presence of vaborbactam by broth microdilution method; conditions: time 16-20 hrs
Escherichia coli [2] = test: Antibacterial activity against Escherichia coli NIHJ JC-2 strain assessed as reduction in microbial growth incubated for 16 to 20 hrs in presence of vaborbactam by broth microdilution method; conditions: time 16-20 hrs
Escherichia coli [3] = test: Antibacterial activity against Escherichia coli SR34100 producing class A beta lactamase, CTX-M-15 assessed as reduction in microbial growth incubated for 16 to 20 hrs in presence of vaborbactam by broth microdilution method; conditions: time 16-20 hrs
Enterobacter cloacae [4] = test: Antibacterial activity against Enterobacter cloacae SR36276 producing class C beta-lactamase, AmpC assessed as reduction in microbial growth incubated for 16 to 20 hrs in presence of vaborbactam by broth microdilution method; conditions: time 16-20 hrs
Enterobacter cloacae [5] = test: Antibacterial activity against Enterobacter cloacae IR32 producing class B beta-lactamase, NDM-1 assessed as reduction in microbial growth incubated for 16 to 20 hrs in presence of vaborbactam by broth microdilution method; conditions: time 16-20 hrs
Klebsiella pneumoniae [6] = test: Antibacterial activity against Klebsiella pneumoniae JMI:211 producing class A beta-lactamase, KPC-2 assessed as reduction in microbial growth incubated for 16 to 20 hrs in presence of vaborbactam by broth microdilution method; conditions: time 16-20 hrs
Enterobacter cloacae [7] = test: Antibacterial activity against Enterobacter cloacae IR32 producing class B beta-lactamase, NDM1 assessed as reduction in microbial growth incubated for 16 to 20 hrs by broth microdilution method; conditions: time 16-20 hrs
[8] = Ratio of MIC for antibacterial activity against Escherichia coli BL21(DE3) transfected with pET9a vector harboring class D beta lactamase, OXA-48 to MIC for antibacterial activity against Escherichia coli BL21(DE3)
Klebsiella pneumoniae [9] = test: Antibacterial activity against Klebsiella pneumoniae JMI:211 producing class A beta-lactamase, KPC-2 assessed as reduction in microbial growth incubated for 16 to 20 hrs by broth microdilution method; conditions: time 16-20 hrs
Escherichia coli [10] = test: Antibacterial activity against Escherichia coli BL21(DE3) transfected with pET9a vector harboring class A beta lactamase, CTX-M-15 incubated for 16 to 20 hrs by broth microdilution method; conditions: time 16-20 hrs
[11] = Ratio of MIC for antibacterial activity against Escherichia coli BL21(DE3) transfected with pET9a vector harboring class C beta lactamase AmpC to MIC for antibacterial activity against Escherichia coli BL21(DE3)
Enterobacter cloacae [12] = test: Antibacterial activity against Enterobacter cloacae SR36276 producing class C beta-lactamase, AmpC assessed as reduction in microbial growth incubated for 16 to 20 hrs by broth microdilution method; conditions: time 16-20 hrs
Escherichia coli [13] = test: Antibacterial activity against Escherichia coli SR34100 producing class A beta-lactamase, CTX-M-15 assessed as reduction in microbial growth incubated for 16 to 20 hrs by broth microdilution method; conditions: time 16-20 hrs
Escherichia coli [14] = test: Antibacterial activity against Escherichia coli NIHJ JC-2 assessed as reduction in microbial growth incubated for 16 to 20 hrs by broth microdilution method; conditions: time 16-20 hrs
[15] = Ratio of MIC for antibacterial activity against Escherichia coli BL21(DE3) transfected with pET9a vector harboring class A beta lactamase, CTX-M-15 to MIC for antibacterial activity against Escherichia coli BL21(DE3)
[16] = Ratio of MIC for antibacterial activity against Escherichia coli BL21(DE3) transfected with pET9a vector harboring class B beta lactamase NDM-1 to MIC for antibacterial activity against Escherichia coli BL21(DE3)
Escherichia coli [17] = test: Antibacterial activity against Escherichia coli BL21(DE3) transfected with pET9a vector harboring class D beta lactamase, OXA-48 incubated for 16 to 20 hrs by broth microdilution method; conditions: time 16-20 hrs
Klebsiella pneumoniae [18] = test: Antibacterial activity against Klebsiella pneumoniae PLE producing class D beta-lactamase, OXA-48 assessed as reduction in microbial growth incubated for 16 to 20 hrs by broth microdilution method; conditions: time 16-20 hrs
Escherichia coli [19] = test: Antibacterial activity against Escherichia coli BL21(DE3) transfected with pET9a empty vector incubated for 16 to 20 hrs by broth microdilution method; conditions: time 16-20 hrs
Escherichia coli [20] = test: Antibacterial activity against Escherichia coli BL21(DE3) transfected with pET9a vector harboring class C beta lactamase, AmpC incubated for 16 to 20 hrs by broth microdilution method; conditions: time 16-20 hrs
Escherichia coli [21] = test: Antibacterial activity against Escherichia coli BL21(DE3) transfected with pET9a vector harboring class B beta lactamase, NDM-1 incubated for 16 to 20 hrs by broth microdilution method; conditions: time 16-20 hrs

## C[C@@H](O)[C@H]1C(=O)N2C(C(=O)O)=C(S[C@@H]3CN[C@H](C(=O)N(C)C)C3)[C@H](C)[C@H]12 [MEROPENEM]
Klebsiella pneumoniae [1]
  MIC: 1 µg/mL
Escherichia coli [2]
  MIC: < 0.031 µg/mL
Escherichia coli [3]
  MIC: < 0.031 µg/mL
Enterobacter cloacae [4]
  MIC: < 0.031 µg/mL
Enterobacter cloacae [5]
  MIC: 16 µg/mL
Klebsiella pneumoniae [6]
  MIC: < 0.031 µg/mL

## CC(C)(O/N=C(\C(=O)N[C@@H]1C(=O)N2[C@@H]1SC[C@@H]1CC(=O)O[C@@]12C(=O)O)c1csc(N)n1)C(=O)O (stereo in doubt)
Enterobacter cloacae [7]
  MIC: 0.5 µg/mL
[8]
  Ratio: <2
Klebsiella pneumoniae [9]
  MIC: 1 µg/mL
Escherichia coli [10]
  MIC: 0.5 µg/mL (≈ 0.974 µM)
[11]
  Ratio: <2
Enterobacter cloacae [12]
  MIC: 16 µg/mL
Escherichia coli [13]
  MIC: 1 µg/mL
Escherichia coli [14]
  MIC: 0.5 µg/mL
[15]
  Ratio: <2
[16]
  Ratio: <2
Escherichia coli [17]
  MIC: 0.5 µg/mL (≈ 0.974 µM)
Klebsiella pneumoniae [18]
  MIC: 2 µg/mL
Escherichia coli [19]
  MIC: 0.5 µg/mL (≈ 0.974 µM)
Escherichia coli [20]
  MIC: 1 µg/mL (≈ 1.95 µM)
Escherichia coli [21]
  MIC: 0.5 µg/mL (≈ 0.974 µM)
